Source: doi:10.1101/2021.05.17.444542v1, “Structure Activity Relationship of USP5 Allosteric Inhibitors” (biorxiv, 2021)

Target: T1, USP5 ZnF-UBD (USP5 171-290) (Homo sapiens, UniProt P45974)
T1 sequence (P45974 171-290): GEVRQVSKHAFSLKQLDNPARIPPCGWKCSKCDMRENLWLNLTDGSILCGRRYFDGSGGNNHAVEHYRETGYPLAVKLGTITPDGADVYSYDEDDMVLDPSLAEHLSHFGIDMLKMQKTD
Conditions: FITC-ubiquitin displacement, N=1; 100 µM; inhibitor

Structure (SMILES)	% inhibition [%]
O=C(O)CCC(=O)c1cccc(NS(=O)(=O)c2c[nH]c3ncccc23)c1 [S1]	40
Cc1ccc(C(=O)O)cc1S(=O)(=O)Nc1cccc(C(=O)CCC(=O)O)c1 [S2]	36
CN(c1ccc(S(C)(=O)=O)cc1)S(=O)(=O)c1ccc(C(=O)CCC(=O)O)cc1 [S4]	61
O=C(O)CCC(=O)c1cccc(NS(=O)(=O)c2cc(F)cc(C(=O)O)c2)c1 [S6]	3
CCCn1nc(C)c(-c2ccc(OC)c(C(=O)CCC(=O)O)c2)c1C [S7]	32

Results, then the compound that gave them:

% inhibition [%]	Structure (SMILES)
31	CC(CC(=O)c1cccc(-c2ccc3c(c2)CCCO3)c1)C(=O)O (stereo not drawn) [S3]
50	O=C(O)CCC(=O)c1cccc(NS(=O)(=O)c2c[nH]c(C(=O)N3CCCC3)c2)c1 [S5]
37	Cc1ccc(OC(C)CNS(=O)(=O)c2ccc(C(=O)CCC(=O)O)cc2)cc1 (stereo not drawn) [S8]
26	O=C(O)CCC(=O)c1cccc(NS(=O)(=O)c2ccc(Cl)c(C(=O)O)c2)c1 [S9]
